From ChEMBL document CHEMBL4330100, “Selective estrogen receptor degraders with novel structural motifs induce regression in a tamoxifen-resistant breast cancer xenograft” (Bioorg Med Chem Lett, 2019)

Key:
Estrogen receptor = molecular target: T1, Estrogen receptor (Homo sapiens, UniProt P03372); experiment: Induction of ERalpha degradation in human MCF7 cells in phenol red free RPMI medium containing 5% charcoal-stripped FBS incubated for 4 hrs by IRDye 800CW/DRAQ5 dye based in-cell Western assay
T1 sequence (P03372 whole entry): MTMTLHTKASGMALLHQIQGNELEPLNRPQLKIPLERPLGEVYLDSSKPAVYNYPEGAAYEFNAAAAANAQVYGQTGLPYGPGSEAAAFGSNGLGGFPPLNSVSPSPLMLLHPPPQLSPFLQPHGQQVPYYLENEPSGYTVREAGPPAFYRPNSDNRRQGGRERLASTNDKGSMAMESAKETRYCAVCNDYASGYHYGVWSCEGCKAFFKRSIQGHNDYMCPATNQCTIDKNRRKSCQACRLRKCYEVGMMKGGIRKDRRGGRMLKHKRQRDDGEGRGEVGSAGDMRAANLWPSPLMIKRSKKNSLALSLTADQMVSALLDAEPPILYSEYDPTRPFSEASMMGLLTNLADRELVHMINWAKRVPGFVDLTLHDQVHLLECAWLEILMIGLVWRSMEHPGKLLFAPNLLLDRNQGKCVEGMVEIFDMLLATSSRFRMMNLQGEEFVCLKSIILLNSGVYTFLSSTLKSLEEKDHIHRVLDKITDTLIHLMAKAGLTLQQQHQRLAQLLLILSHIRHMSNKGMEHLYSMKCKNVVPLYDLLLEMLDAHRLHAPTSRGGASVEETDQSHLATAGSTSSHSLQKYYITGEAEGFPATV

MCF7 = experiment: Antiproliferative activity against human MCF7 cells assessed as reduction in cell proliferation measured after 5 days by Cell-titer-Glo assay; format: functional, cell-based; settings: MCF7, 120 h
[1] = molecular target: T2, Estrogen receptor (Homo sapiens) (UniProt P03372); experiment: Induction of ERalpha degradation in human MCF7 cells in phenol red free RPMI medium containing 5% charcoal-stripped FBS incubated for 4 hrs by IRDye 800CW/DRAQ5 dye based in-cell Western assay relative to fulvestrant
T2 sequence (whole entry): T1 sequence (P03372 whole entry)

Row | EC50 (Estrogen receptor) [µM] | IC50 (MCF7) [µM] | Efficacy [1] [%] | SMILES
1 | > 0.5 | > 0.5 | – | CC/C(=C(/c1ccc(/C=C/C(=O)O)cc1)c1ccn2ccnc2c1)c1ccccc1
2 | 0.0059 | 0.016 | 88 | O=C(O)/C=C/c1ccc(/C(=C(\c2ccccc2)C2CCC2)c2ccc3scnc3c2)cc1
3 | 0.0015 | 0.0051 | 94 | O=C(O)/C=C/c1ccc(/C(=C(\c2ccc(C(F)(F)F)cc2Cl)C2CCC2)c2ccc3nccn3c2)cc1
4 | 0.017 | 0.051 | 92 | CC/C(=C(/c1ccc(/C=C/C(=O)O)cc1)c1ccc(-c2cnco2)cc1)c1ccccc1
5 | 0.037 | 0.12 | 90 | CC/C(=C(/c1ccc(/C=C/C(=O)O)cc1)c1ccc(-c2cscn2)cc1)c1ccccc1
6 | 0.0042 | 0.0075 | 92 | N#Cc1ccc(/C(=C(\c2ccc(/C=C/C(=O)O)cc2)c2ccc(N3CCOCC3)cc2)C2CCC2)c(Cl)c1
7 | 0.012 | 0.04 | 91 | CC/C(=C(/c1ccc(/C=C/C(=O)O)cc1)c1ccc(-c2cn[nH]c2)cc1)c1ccccc1
8 | 0.0021 | 0.011 | 90 | O=C(O)/C=C/c1ccc(/C(=C(\c2ccccc2)C2CCC2)c2ccc(-c3cn[nH]c3)cc2)cc1
9 | 0.019 | 0.015 | 93 | N#Cc1ccc(/C(=C(\c2ccc(/C=C/C(=O)O)cc2)c2ccc3nccn3c2)C2CCC2)c(Cl)c1
10 | 0.028 | 0.12 | 89 | CC/C(=C(/c1ccc(/C=C/C(=O)O)cc1)c1ccc(-c2cnsc2)cc1)c1ccccc1
11 | – | 0.0046 | – | CC/C(=C(\c1ccc(O)cc1)c1ccc(/C=C/C(=O)O)cc1)c1ccccc1
12 | 0.0018 | 0.0029 | 94 | N#Cc1ccc(/C(=C(\c2ccc(/C=C/C(=O)O)cc2)c2ccc(-c3cncs3)cc2)C2CCC2)c(Cl)c1
13 | 0.0014 | 0.0073 | 93 | O=C(O)/C=C/c1ccc(/C(=C(\c2ncc(C(F)(F)F)cc2Cl)C2CCC2)c2ccc(-c3cncs3)cc2)cc1
14 | 0.015 | 0.08 | 92 | CC/C(=C(/c1ccc(/C=C/C(=O)O)cc1)c1ccc(-c2cnn(C)c2)cc1)c1ccccc1
15 | > 0.5 | > 0.5 | – | CC/C(=C(/c1ccc(/C=C/C(=O)O)cc1)c1ccc2nnnn2c1)c1ccccc1
16 | 0.0028 | 0.016 | 93 | O=C(O)/C=C/c1ccc(/C(=C(\c2ncc(C(F)(F)F)cc2Cl)C2CCC2)c2ccc(-c3cn[nH]c3)cc2)cc1
17 | 0.005 | 0.012 | 92 | N#Cc1cc(Cl)ccc1/C(=C(\c1ccc(/C=C/C(=O)O)cc1)c1ccc(N2CCOCC2)cc1)C1CCC1
18 | 0.022 | 0.09 | 89 | CC/C(=C(/c1ccc(/C=C/C(=O)O)cc1)c1ccc2scnc2c1)c1ccccc1
19 | 0.05 | 0.094 | 91 | CC/C(=C(/c1ccc(/C=C/C(=O)O)cc1)c1ccc(N2CCOCC2)cc1)c1ccccc1
20 | 0.0041 | 0.02 | 92 | O=C(O)/C=C/c1ccc(/C(=C(\c2ncc(C(F)(F)F)cc2Cl)C2CCC2)c2ccc(N3CCOCC3)cc2)cc1
21 | > 0.5 | > 0.5 | – | CC/C(=C(/c1ccc(/C=C/C(=O)O)cc1)c1ccc2nncn2c1)c1ccccc1
22 | 0.027 | 0.081 | 86 | CC/C(=C(/c1ccc(/C=C/C(=O)O)cc1)c1ccc2c(cnn2C)c1)c1ccc(F)cc1Cl
23 | 0.0048 | 0.016 | 93 | O=C(O)/C=C/c1ccc(/C(=C(\c2ccc(C(F)(F)F)cc2Cl)C2CCC2)c2ccc(-c3cn[nH]c3)cc2)cc1
24 | 0.0043 | 0.0059 | 93 | N#Cc1cc(Cl)ccc1/C(=C(\c1ccc(/C=C/C(=O)O)cc1)c1ccc2nccn2c1)C1CCC1
25 | 0.0074 | 0.031 | 90 | CC/C(=C(/c1ccc(/C=C/C(=O)O)cc1)c1ccc(-c2cncs2)cc1)c1ccccc1
